Reference: US20240246942A1, “KINASE INHIBITORS FOR THE TREATMENT OF NEURODEGENERATIVE DISEASES” (priority 2020, published 2024)

How the values were obtained:
Test in all cases: biochemical
[1] = target: T1, panel of 374 wild-type kinases (Homo sapiens, UniProt O00141); conditions: read-out: % Enzyme Activity (relative to DMSO controls), kinase SGK1
T1 construct: purchased Reaction Biology Corporation
T1 sequence (O00141 1-431): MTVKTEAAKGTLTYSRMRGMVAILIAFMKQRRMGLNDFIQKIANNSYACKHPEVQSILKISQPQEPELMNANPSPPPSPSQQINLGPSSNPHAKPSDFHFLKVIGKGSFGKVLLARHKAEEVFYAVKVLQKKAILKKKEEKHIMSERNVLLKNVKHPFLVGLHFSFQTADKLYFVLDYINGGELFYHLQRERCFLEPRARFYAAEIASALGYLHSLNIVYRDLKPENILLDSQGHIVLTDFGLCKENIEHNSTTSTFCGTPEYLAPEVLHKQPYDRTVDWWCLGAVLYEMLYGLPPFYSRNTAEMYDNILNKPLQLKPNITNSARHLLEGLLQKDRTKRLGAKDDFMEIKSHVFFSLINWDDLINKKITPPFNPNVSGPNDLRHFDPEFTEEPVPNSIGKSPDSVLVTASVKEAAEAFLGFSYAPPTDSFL

[2] = target: T2, panel of 374 wild-type kinases (Homo sapiens, UniProt O43353); conditions: read-out: % Enzyme Activity (relative to DMSO controls), kinase RIPK2
T2 construct: purchased Reaction Biology Corporation
T2 sequence (O43353 whole entry): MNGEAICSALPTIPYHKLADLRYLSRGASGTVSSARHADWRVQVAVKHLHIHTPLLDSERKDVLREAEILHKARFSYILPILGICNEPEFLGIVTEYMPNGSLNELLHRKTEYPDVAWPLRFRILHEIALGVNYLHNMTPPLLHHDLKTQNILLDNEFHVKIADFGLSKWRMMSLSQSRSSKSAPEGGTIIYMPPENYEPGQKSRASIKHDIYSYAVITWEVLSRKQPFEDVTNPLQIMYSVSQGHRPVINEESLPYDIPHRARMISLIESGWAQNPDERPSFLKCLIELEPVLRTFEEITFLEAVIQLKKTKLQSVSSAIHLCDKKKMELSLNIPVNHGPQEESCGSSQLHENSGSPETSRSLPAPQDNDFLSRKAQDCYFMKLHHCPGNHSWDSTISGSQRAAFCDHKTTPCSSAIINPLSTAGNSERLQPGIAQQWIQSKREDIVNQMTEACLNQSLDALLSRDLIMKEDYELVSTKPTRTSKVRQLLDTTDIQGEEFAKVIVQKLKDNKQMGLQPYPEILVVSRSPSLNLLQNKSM

[3] = target: T3, panel of 374 wild-type kinases (Homo sapiens, UniProt P15735); conditions: read-out: % Enzyme Activity (relative to DMSO controls), kinase PHKg2
T3 construct: purchased Reaction Biology Corporation
T3 sequence (P15735 1-406): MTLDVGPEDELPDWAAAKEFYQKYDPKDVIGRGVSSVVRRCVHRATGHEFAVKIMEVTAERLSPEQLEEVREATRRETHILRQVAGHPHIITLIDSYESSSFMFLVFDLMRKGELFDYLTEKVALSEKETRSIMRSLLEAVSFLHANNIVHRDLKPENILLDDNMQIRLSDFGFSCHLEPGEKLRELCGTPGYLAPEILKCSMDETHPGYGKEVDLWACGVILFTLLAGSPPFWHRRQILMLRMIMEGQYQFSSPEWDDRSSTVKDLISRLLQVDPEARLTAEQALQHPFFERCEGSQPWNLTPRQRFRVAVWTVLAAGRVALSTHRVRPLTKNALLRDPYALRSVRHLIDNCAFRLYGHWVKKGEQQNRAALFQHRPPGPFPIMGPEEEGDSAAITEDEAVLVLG

[4] = target: T4, panel of 374 wild-type kinases (Homo sapiens, UniProt P21709); conditions: read-out: % Enzyme Activity (relative to DMSO controls), EPHA1
T4 construct: purchased Reaction Biology Corporation
T4 sequence (P21709 26-976): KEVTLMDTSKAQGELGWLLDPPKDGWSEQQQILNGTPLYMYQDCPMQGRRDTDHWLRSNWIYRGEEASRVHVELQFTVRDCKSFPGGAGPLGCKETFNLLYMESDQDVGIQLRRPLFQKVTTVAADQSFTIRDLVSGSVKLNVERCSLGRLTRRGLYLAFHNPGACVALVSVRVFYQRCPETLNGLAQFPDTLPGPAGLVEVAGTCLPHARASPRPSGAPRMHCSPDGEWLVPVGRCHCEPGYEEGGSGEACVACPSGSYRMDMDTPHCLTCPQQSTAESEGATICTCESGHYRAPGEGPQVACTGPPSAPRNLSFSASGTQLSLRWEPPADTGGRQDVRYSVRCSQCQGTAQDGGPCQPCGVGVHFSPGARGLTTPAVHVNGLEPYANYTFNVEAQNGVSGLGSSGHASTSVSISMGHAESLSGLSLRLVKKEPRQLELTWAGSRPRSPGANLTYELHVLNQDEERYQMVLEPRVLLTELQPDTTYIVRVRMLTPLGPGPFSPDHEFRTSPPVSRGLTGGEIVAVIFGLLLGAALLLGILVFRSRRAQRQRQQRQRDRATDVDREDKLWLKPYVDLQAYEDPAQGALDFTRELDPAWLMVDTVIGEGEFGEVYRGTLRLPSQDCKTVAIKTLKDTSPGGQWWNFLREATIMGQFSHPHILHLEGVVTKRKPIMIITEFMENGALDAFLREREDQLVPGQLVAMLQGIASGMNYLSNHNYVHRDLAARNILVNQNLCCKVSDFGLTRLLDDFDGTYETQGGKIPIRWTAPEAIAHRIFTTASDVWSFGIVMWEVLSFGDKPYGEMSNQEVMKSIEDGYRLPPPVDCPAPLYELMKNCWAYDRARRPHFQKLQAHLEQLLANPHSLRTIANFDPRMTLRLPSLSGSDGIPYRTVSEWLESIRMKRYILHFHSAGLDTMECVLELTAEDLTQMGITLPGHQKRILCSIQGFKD

[5] = target: T5, panel of 374 wild-type kinases (Homo sapiens, UniProt P22694); conditions: read-out: % Enzyme Activity (relative to DMSO controls), kinase PKAcb
T5 construct: purchased Reaction Biology Corporation

[6] = target: T6, panel of 374 wild-type kinases (Homo sapiens, UniProt P49841); conditions: read-out: % Enzyme Activity (relative to DMSO controls), GSK3b
T6 construct: purchased Reaction Biology Corporation

[7] = target: T7, panel of 374 wild-type kinases (Homo sapiens, UniProt P78362); conditions: read-out: % Enzyme Activity (relative to DMSO controls), kinase SRPK2
T7 construct: purchased Reaction Biology Corporation
T7 sequence (P78362 whole entry): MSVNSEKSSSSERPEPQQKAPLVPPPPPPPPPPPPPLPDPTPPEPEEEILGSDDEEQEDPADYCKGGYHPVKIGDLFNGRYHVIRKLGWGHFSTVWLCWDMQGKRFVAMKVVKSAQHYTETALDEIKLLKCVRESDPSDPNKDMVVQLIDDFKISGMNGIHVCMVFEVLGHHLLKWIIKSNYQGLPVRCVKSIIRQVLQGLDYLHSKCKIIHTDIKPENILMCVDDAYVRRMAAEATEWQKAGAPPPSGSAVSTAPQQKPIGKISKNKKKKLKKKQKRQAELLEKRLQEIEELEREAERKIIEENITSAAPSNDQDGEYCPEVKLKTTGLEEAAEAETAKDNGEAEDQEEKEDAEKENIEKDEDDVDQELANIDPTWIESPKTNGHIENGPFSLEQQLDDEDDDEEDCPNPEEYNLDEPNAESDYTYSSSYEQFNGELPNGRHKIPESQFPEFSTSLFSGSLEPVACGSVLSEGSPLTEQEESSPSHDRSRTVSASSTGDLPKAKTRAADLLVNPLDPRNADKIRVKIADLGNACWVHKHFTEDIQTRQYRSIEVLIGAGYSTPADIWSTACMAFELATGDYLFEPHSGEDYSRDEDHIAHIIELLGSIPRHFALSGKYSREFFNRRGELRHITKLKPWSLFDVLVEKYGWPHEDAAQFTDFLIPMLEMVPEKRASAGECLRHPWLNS

[8] = target: T8, panel of 374 wild-type kinases (Homo sapiens, UniProt Q04912); conditions: read-out: % Enzyme Activity (relative to DMSO controls), kinase RON/MST1R
T8 construct: purchased Reaction Biology Corporation
T8 sequence (Q04912 25-1400): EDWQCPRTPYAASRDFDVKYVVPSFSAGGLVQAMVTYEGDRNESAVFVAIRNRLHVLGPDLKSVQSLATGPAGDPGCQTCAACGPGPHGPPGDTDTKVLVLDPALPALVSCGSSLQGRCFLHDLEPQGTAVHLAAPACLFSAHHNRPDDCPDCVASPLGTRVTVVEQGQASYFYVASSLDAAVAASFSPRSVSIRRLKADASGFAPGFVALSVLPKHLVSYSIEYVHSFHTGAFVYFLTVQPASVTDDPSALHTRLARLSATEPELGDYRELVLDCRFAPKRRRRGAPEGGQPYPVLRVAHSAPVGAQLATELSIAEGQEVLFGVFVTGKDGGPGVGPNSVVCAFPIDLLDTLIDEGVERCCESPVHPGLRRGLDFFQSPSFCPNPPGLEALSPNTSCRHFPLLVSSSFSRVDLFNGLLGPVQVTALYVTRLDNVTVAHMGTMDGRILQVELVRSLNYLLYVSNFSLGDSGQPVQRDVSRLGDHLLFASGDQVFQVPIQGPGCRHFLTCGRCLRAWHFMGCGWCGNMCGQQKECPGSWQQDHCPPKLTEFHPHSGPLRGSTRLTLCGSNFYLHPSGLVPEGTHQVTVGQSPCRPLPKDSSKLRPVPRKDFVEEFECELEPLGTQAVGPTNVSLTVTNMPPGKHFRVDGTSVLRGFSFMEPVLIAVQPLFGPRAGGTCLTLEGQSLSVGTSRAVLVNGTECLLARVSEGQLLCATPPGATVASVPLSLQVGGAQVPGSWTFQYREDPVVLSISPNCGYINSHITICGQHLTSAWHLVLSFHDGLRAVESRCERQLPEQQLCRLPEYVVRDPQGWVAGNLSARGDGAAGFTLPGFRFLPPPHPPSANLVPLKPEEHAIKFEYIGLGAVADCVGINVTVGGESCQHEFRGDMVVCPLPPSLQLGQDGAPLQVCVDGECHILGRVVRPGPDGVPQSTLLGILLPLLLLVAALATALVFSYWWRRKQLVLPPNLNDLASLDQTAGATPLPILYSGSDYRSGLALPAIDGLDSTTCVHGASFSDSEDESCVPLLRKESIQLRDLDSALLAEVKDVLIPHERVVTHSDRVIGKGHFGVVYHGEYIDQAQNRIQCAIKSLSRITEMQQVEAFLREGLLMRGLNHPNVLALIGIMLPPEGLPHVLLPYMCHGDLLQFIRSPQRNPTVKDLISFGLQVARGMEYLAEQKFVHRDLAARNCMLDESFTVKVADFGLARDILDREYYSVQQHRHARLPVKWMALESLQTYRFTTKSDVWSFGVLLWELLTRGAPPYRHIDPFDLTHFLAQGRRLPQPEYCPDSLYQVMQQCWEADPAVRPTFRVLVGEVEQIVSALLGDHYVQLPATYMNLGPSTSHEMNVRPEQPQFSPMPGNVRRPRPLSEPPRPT

[9] = target: T9, panel of 374 wild-type kinases (Homo sapiens, UniProt Q15759); conditions: read-out: % Enzyme Activity (relative to DMSO controls), P38b/MAPK11
T9 construct: purchased Reaction Biology Corporation
T9 sequence (Q15759 whole entry): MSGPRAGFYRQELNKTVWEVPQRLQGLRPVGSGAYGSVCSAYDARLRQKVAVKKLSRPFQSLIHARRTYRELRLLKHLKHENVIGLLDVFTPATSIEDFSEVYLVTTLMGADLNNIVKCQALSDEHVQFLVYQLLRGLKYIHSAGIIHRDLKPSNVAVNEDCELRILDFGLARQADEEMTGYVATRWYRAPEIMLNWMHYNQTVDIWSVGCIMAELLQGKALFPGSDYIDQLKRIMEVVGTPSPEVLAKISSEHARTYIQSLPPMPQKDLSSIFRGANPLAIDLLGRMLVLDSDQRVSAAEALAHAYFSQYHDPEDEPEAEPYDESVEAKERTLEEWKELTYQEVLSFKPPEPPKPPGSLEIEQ

[10] = target: T10, panel of 374 wild-type kinases (Homo sapiens, UniProt Q7KZI7); conditions: read-out: % Enzyme Activity (relative to DMSO controls), MARK2/PAR-1Ba
T10 construct: purchased Reaction Biology Corporation
T10 sequence (Q7KZI7 whole entry): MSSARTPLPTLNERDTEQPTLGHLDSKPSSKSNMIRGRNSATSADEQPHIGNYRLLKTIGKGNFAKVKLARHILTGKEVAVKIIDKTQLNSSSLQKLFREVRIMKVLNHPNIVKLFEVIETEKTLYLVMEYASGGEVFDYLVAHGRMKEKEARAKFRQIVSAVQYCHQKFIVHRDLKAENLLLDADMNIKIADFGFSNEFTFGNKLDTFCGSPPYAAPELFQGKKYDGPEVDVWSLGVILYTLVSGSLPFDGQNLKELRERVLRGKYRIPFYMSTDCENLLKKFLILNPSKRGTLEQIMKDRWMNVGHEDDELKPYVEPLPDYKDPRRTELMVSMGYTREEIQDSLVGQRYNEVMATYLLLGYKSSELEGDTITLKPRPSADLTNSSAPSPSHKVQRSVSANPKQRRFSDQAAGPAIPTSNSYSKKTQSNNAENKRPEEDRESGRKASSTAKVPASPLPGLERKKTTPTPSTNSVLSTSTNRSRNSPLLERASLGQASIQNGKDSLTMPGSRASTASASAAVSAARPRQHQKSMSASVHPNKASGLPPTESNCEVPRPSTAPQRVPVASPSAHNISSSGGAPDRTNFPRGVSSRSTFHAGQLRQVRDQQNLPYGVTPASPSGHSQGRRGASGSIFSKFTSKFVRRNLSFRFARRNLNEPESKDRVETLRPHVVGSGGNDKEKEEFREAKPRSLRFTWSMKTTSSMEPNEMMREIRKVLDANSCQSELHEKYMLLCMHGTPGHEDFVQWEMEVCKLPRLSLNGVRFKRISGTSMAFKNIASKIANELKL

[11] = target: T11, panel of 374 wild-type kinases (Homo sapiens, UniProt Q86V86); conditions: read-out: % Enzyme Activity (relative to DMSO controls), kinase PIM3
T11 construct: purchased Reaction Biology Corporation

[12] = target: T12, panel of 374 wild-type kinases (Homo sapiens, UniProt Q9NYL2); conditions: read-out: % Enzyme Activity (relative to DMSO controls), kinase ZAK/MLTK
T12 construct: purchased Reaction Biology Corporation
T12 sequence (Q9NYL2 whole entry): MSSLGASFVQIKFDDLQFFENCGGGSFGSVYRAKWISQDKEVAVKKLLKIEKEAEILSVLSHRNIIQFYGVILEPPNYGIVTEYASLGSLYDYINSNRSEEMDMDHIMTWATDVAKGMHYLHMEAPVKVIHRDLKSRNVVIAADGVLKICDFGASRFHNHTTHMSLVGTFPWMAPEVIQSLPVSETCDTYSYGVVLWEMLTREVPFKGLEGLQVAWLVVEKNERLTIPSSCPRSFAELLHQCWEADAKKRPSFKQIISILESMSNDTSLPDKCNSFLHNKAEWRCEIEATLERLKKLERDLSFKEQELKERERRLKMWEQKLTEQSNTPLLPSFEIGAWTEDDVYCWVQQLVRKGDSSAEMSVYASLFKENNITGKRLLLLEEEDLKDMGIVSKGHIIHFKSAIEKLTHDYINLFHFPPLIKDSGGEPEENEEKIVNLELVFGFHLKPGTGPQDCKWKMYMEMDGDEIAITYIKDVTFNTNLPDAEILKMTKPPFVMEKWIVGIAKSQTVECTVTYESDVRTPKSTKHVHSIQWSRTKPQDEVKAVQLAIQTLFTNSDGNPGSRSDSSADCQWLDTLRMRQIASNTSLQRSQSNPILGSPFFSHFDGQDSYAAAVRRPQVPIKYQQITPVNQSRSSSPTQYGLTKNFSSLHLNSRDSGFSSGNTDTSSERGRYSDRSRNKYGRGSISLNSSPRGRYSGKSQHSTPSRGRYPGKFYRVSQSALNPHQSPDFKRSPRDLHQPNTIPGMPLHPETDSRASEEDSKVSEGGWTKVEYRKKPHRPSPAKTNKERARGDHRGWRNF

O=C(Nc1cnn(-c2csc(C(=O)NC3COC3)c2)c1)Nc1ccccc1Cl [Compound 17, 4-(4-(3-(2-chlorophenyl)ureido)-1H-pyrazol-1-yl)-N-(oxetan-3-yl)thiophene-2-carboxamide]
remaining activity at 5 µM [1]: 93.7%
remaining activity at 5 µM [2]: 120%
remaining activity at 5 µM [3]: 101%
remaining activity at 5 µM [4]: 99.1%
remaining activity at 5 µM [5]: 99%
remaining activity at 5 µM [6]: 95%
remaining activity at 5 µM [7]: 95.6%
remaining activity at 5 µM [8]: 108%
remaining activity at 5 µM [9]: 101%
remaining activity at 5 µM [10]: 104%
remaining activity at 5 µM [11]: 61.2%
remaining activity at 5 µM [12]: 101%

O=C(Nc1cnn(-c2csc(C(=O)NC3COC3)c2)c1)Nc1c(F)cccc1Cl [Compound 25, 4-(4-(3-(2-chloro-6-fluorophenyl)ureido)-1H-pyrazol-1-yl)-N-(oxetan-3-yl)thiophene-2-carboxamide]
remaining activity at 5 µM [1]: 95.4%
remaining activity at 5 µM [2]: 80.2%
remaining activity at 5 µM [3]: 131%
remaining activity at 5 µM [4]: 88.4%
remaining activity at 5 µM [5]: 98.3%
remaining activity at 5 µM [6]: 95.7%
remaining activity at 5 µM [7]: 94%
remaining activity at 5 µM [8]: 100%
remaining activity at 5 µM [9]: 91.7%
remaining activity at 5 µM [10]: 90.7%
remaining activity at 5 µM [11]: 73.9%
remaining activity at 5 µM [12]: 90.4%

Cc1sc(C(=O)NC2COC2)cc1-n1cc(NC(=O)Nc2c(F)cccc2Cl)cn1 [Compound 27, 4-(4-(3-(2-chloro-6-fluorophenyl)ureido)-1H-pyrazol-1-yl)-5-methyl-N-(oxetan-3-yl)thiophene-2-carboxamide]
remaining activity at 10 µM ([1]; 10 uM): 115%
remaining activity at 10 µM ([2]; 10 uM): 89.3%
remaining activity at 10 µM ([3]; 10 uM): 88.5%
remaining activity at 10 µM ([4]; 10 uM): 88.5%
remaining activity at 10 µM ([5]; 10 uM): 104%
remaining activity at 10 µM ([6]; 10 uM): 94.9%
remaining activity at 10 µM ([7]; 10 uM): 114%
remaining activity at 10 µM ([8]; 10 uM): 96.9%
remaining activity at 10 µM ([9]; 10 uM): 94.3%
remaining activity at 10 µM ([10]; 10 uM): 99.8%
remaining activity at 10 µM ([11]; 10 uM): 129%
remaining activity at 10 µM ([12]; 10 uM): 89.9%
